Source: PubChem BioAssay AID1918991 (Molecular Pharmacology Branch, DTP, NCI, 2023)
Values joined by “and” are separate entries in the source; they are usually repeats but may differ in a detail not shown here. Identical values can stand only once.

Test system: 186277-243-T-J2-PDC complex spheroid growth
Test: Anticancer human tumor 186277-243-T-J2-PDC patient-derived colon adenocarcinoma cell line growth inhibition [AhR]
Details: for viability, T/C: stronger effect = lower value
Text: Multicellular complex tumor spheroid response to aryl hydrocarbon receptor antagonists in combination with a variety of drugs and investigational agents in selected tumor cell lines
The current study was undertaken to assess response to aryl hydrocarbon receptor antagonists in combination with standard-of-care drugs and investigational agents in solid tumor complex spheroid models. Complex spheroids include a stromal component modeled by human endothelial cells (HUVEC) and fibroblasts modeled by human mesenchymal stem cells (MSCs). The concentration ranges selected for each drug and investigational agent were based upon clinically achievable concentrations if the clinical Cmax of the agent was known.
Compounds. The drugs and investigational agents: BAY 2416964 (NSC825713), GNF351 (NSC835774), CH-223191 (NSC835775), CPI-455 (NSC825282), aza-TdCyd (NSC777586), decitabine (NSC127716), belinostat (NSC758774), entinostat (NSC756642), pevonedistat (NSC761192), tazemetostat (NSC777109), talazoparib (NSC765396), olaparib (NSC753686), selinexor (NSC780203), nedisertib (M3814, NSC802822), bortezomib (NSC756655), venetoclax (NSC766270), doxorubicin (NSC123127), elimusertib (BAY189344, NSC800525), ceralasertib (AZD6738, NSC777638), TAK-243 (NSC785004), alisertib (NSC759677), etoposide (NSC141540), topotecan (NSC609699), eribulin (NSC707389), gemcitabine (NSC613327), carboplatin (NSC241240), cisplatin (NSC119875), and SN-38 (NSC673596) were obtained from the National Cancer Institute (NCI) Developmental Therapeutics Program Chemical Repository (32). The FDA-approved anticancer drug set is available from the Developmental Therapeutics Program at https://dtp.cancer.gov/organization/dscb/obtaining/available plates.htm. […] The stock solutions were prepared in dimethyl sulfoxide (DMSO, Sigma-Aldrich, St. Louis, MO, cat. D2650), except for the platinum compounds which were prepared in saline (Quality Biological, Gaithersburg, MD, cat. 114-055-101), at 800-fold the tested concentration and stored at -70 degrees C prior to their use. All drugs and investigational agents were tested over a range starting from a high concentration at or near the clinical Cmax and decreasing in half-log increments. If the clinical Cmax for an agent had not been determined, the highest concentration tested was 10 microM (Table 1).
Cell Culture. All cells were maintained in an incubator at 37 degrees C and 5% CO2 with 95% humidity. The PDC lines were cultured according to standard operating procedures established by the NCI PDMR (https://pdmr.cancer.gov). Briefly, all PDCs were thawed and cultured in Matrigel-coated flasks prepared with a working solution of 1X Ham's F-12 nutrient mix, without supplementation (Invitrogen, Waltham, MA, cat. 11765054), 100 U/mL penicillin-streptomycin (Invitrogen, cat. 15140122), and 2.5% Matrigel (Corning Inc., Corning, NY, cat. 354248) for the first three passages. All PDCs were cultured in complete DMEM/F-12 media containing advanced DMEM/F-12 (Invitrogen, cat. 12634028), 4.9% defined fetal bovine serum, heat inactivated (HyClone Laboratories Inc., Logan, UT, cat. SH30070.03HI), 389 ng/mL hydrocortisone (Sigma-Aldrich, cat. H4001), 9.7 ng/mL human EGF recombinant protein (Invitrogen, cat. PHG0313), 23.4 microg/mL adenine (Sigma-Aldrich, cat. A2786), 97.3 U/mL penicillin-streptomycin (Invitrogen, cat. 15140122), 1.9 mM L-glutamine (Invitrogen, cat. 25030081), and 9.7 microM Y-27632 dihydrochloride (Tocris Bioscience, Bristol, United Kingdom, cat. 1254). The PDCs were cultured in complete DMEM/F12 media without 10 microM Y-27632 dihydrochloride for at least two passages prior to the screen. The established cell lines NCI-H1341 and […] were cultured in DMEM/F-12, HEPES (Invitrogen, cat. 11330032), 5% defined fetal bovine serum (HyClone Laboratories Inc., cat. SH30070.03), ITS premix universal culture supplement [insulin (5 microg/mL), transferrin (5 microg/mL), and selenious acid (5 ng/mL)] […]
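Also: spheroids exposed to compounds for seven days before the viability read.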
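For viability, T/C in this document: luminescent signal used as a stand-in for viable cell amount; 100% = DMSO vehicle control wells.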

SMILES | IC50 (curve of compound) | viability, T/C (compound 0.0316 µM) | viability, T/C (compound 0.1 µM) | viability, T/C (compound 1 µM) | viability, T/C (compound 3.16 µM) | viability, T/C (compound 10 µM) | viability, T/C (compound 0.316 µM) | other results
COc1cccc2c1C(=O)c1c(O)c3c(c(O)c1C2=O)CC(O)(C(=O)CO)CC3OC1CC(N)C(O)C(C)O1 (configuration not stated) | – | 111% and 154% and 44.9% | 74.9% and 144% and 30.5% | 0.9% and 5.52% and 0.26% | 0.36% and 0.59% and 0.22% | 0.28% and 1.4% and 0.25% | – | –
Cc1ccccc1N=Nc1ccc(NC(=O)c2ccnn2C)c(C)c1 | – | – | – | 99.2% [middle of 20 runs] | 96% [middle of 20 runs] | 88.8% [middle of 20 runs] | – | IC50 (compound alone, run of 07/26/2022): > 10000 nM
Cc1cncc(-c2nc(NCCc3c[nH]c4ccccc34)c3ncn(C(C)C)c3n2)c1 | – | – | – | – | – | – | 97.7% [middle of 20 runs] | –
Cn1ncnc1C1c2n[nH]c(=O)c3cc(F)cc(c23)NC1c1ccc(F)cc1 (configuration not stated) | > 100 nM | 99.6% and 119% and 78.8% | 110% and 114% and 69% | – | – | – | – | viability, T/C (compound 0.000316 µM): 102% and 97.2% and 113%; viability, T/C (compound 0.001 µM): 97.8% and 111% and 108%; viability, T/C (compound 0.00316 µM): 91.4% and 107% and 93.2%; viability, T/C (compound 0.01 µM): 103% and 107% and 102%
Nc1ccccc1NC(=O)c1ccc(CNC(=O)OCc2cccnc2)cc1 | 4530 nM and 5440 nM and 639 nM | 88.5% and 90.8% and 86.3% | 93.2% and 91.9% and 87.4% | 86.5% and 92.2% and 37% | 68.6% and 79.5% and 12.6% | 8.95% and 16.8% and 0.82% | 76.2% and 99.5% and 68.8% | –
O=C(C=Cc1cccc(S(=O)(=O)Nc2ccccc2)c1)NO | 1160 nM and 2160 nM and 285 nM | 96.8% and 107% and 99.7% | 93.5% and 112% and 84.1% | 55.2% and 91.8% and 13.2% | – | 5.03% and 5.28% and 0.5% | 99.1% and 95.8% and 46.9% | –
O=C(c1cc(Cc2n[nH]c(=O)c3ccccc23)ccc1F)N1CCN(C(=O)C2CC2)CC1 | > 10000 nM and 6300 nM | 97.8% and 98% and 85.2% | 93.2% and 103% and 106% | 109% and 92.3% and 85% | 132% and 89.9% and 70.9% | 120% and 114% and 36.5% | 114% and 94.5% and 98.3% | –

Continued, in another order:

IC50 (curve of compound) | SMILES | viability, T/C (compound 0.0316 µM) | viability, T/C (compound 0.1 µM) | viability, T/C (compound 1 µM) | viability, T/C (compound 3.16 µM) | viability, T/C (compound 10 µM) | viability, T/C (compound 0.316 µM) | other results
949 nM and 927 nM and 412 nM | NS(=O)(=O)OCC1CC(n2ccc3c(NC4CCc5ccccc54)ncnc32)CC1O (configuration not stated) | 89.3% and 94.6% and 101% | 102% (2×) and 88.4% | 45.8% and 44.2% and 18.4% | 20.8% and 25.7% and 4.9% | 5.48% and 7.98% and 1.51% | 89.2% and 88.5% and 60.5% | –
< 31.6 nM | Nc1ccn(C2OC(CO)C(O)C2(F)F)c(=O)n1 (configuration not stated) | 9.07% and 4.89% and 17.2% | 8.27% and 4.63% and 16.2% | 8.52% and 4.4% and 18.1% | 9.77% and 4.35% and 19.5% | 9.11% and 3.84% and 21.3% | 8.12% and 4.79% and 17.4% | –
> 1000 nM and 982 nM | Nc1ncn(C2CC(O)C(CO)O2)c(=O)n1 (configuration not stated) | 98.8% and 108% and 88.1% | 114% and 107% and 76.6% | 133% and 121% and 49.5% | – | – | 137% and 110% and 65.2% | viability, T/C (compound 0.00316 µM): 102% and 96.5% and 89.6%; viability, T/C (compound 0.01 µM): 104% and 110% and 93.2%
> 300 nM and 134 nM | Nc1ncn(C2CC(O)C(CO)S2)c(=O)n1 (configuration not stated) | – | – | – | – | – | – | viability, T/C (compound 0.000949 µM): 87.2% and 104% and 95.7%; viability, T/C (compound 0.003 µM): 88% and 111% and 97.1%; viability, T/C (compound 0.00949 µM): 108% and 115% and 92.5%; viability, T/C (compound 0.03 µM): 125% and 111% and 78.5%; viability, T/C (compound 0.0949 µM): 128% and 116% and 60.8%; viability, T/C (compound 0.3 µM): 102% and 117% and 26.4%
474 nM and 524 nM and 61.5 nM | O=C(C=Cn1cnc(-c2cc(C(F)(F)F)cc(C(F)(F)F)c2)n1)NNc1cnccn1 | – | – | – | – | – | – | viability, T/C (compound 0.00949 µM): 92.2% and 97% and 81.2%; viability, T/C (compound 0.03 µM): 102% and 90.7% and 65.3%; viability, T/C (compound 0.0949 µM): 102% and 91.8% and 41.7%; viability, T/C (compound 0.3 µM): 74.7% and 80.7% and 10.9%; viability, T/C (compound 0.949 µM): 12.6% and 17.4% and 2.87%; viability, T/C (compound 3 µM): 4.45% and 8.73% and 1.48%
